Read-outs that look alike come from different tables or passages of the source.

The nature of series [1]: Preformulation stability of pregabalin with physically admixed non-reducing saccharides (appearance, scent). It is filed as physicochemical.

As for `CC(C)CC(CN)CC(=O)O` (stereo not drawn) [Pregabalin, 5-methyl-3-aminomethyl-hexanoic acid], the Scent entry in series [1] (40° C./75% RH/4 Weeks/open), in series [1] (50° C./4 Weeks/closed) and in series [1] (Initial) was “Odourless” each time. Further, the “% Known Impurities Lactum RRT = 3.91” value runs as follows: (40° C./75% RH/4 Weeks/open) 0.004%; (60° C./2 Weeks/closed) 0.006%; (Initial) less than 0.0003%.

(Values after patent US8968780B2, “Stabilized pharmaceutical composition” (Egis Gyogyszergyar Nyilvanosan Muekoedoe Reszvenytarsasag, priority 2010, dated 2015).)
